# Test results from patent publication US9834823B2, “Primers, assays and methods for detecting an E. coli subtype” (priority 2012, dated 2017).
# Values joined by “and” are separate entries in the source; they are usually repeats but may differ in a detail not shown here. Identical values can stand only once.
# Assays:
# Type in all cases: cell-based
# [1] = test system: Escherichia coli clinical isolates from U.S. veterans; experiment: Susceptibility testing (broth microdilution or disk diffusion) at VAMCs with population back-calculations; settings: for Prevalence of resistance, H30 ST131: H30 ST131 subclone isolates (H30 subclone vs. others); for Prevalence of resistance, ST131: ST131 isolates (ST131 vs. others); for Prevalence of resistance, Total (%): all isolates; for Estimated fraction due to ST131: fraction of resistance phenotype due to ST131; for Overall prevalence in population, %: resistance phenotype, back-calculated with 29% FQ resistance
# [2] = test system: Escherichia coli clinical isolates (ESBL-positive and ESBL-negative; ST131 subclones); experiment: Broth microdilution antimicrobial susceptibility, NorthShore ESBL case-control isolates; settings: for No. of resistant isolates (column %), H30-Rx (N = 47): H30-Rx subclone isolates (N = 47) within the H30 ST131 subclone; for No. of resistant isolates (column %), H30, non-Rx (N = 15): H30 non-Rx isolates (N = 15) within the H30 ST131 subclone; for No. of resistant isolates (column %), H30 (N = 62): H30 subclone isolates (N = 62) among 71 E. coli ST131 isolates; for No. of resistant isolates (column %), Non-H30 (N = 9): non-H30 isolates (N = 9) among 71 E. coli ST131 isolates
# Description: As reported elsewhere, the 267 E. coli study isolates were collected between 2007 and 2010 as part of a prospective case-control study conducted at NorthShore University HealthSystem (Banerjee, R J et al. “Predictors and molecular epidemiology of community-onset extended-spectrum beta-lactamase (ESBL) Escherichia coli infection in a Midwestern community,” 2013 Infect Control Hosp Epidemiol; in press). Cases were defined as adults with ESBL-producing E. coli cultured from any specimen type. Controls were defined as the 1 or 2 patients with non-ESBL E. coli isolates identified just subsequent to the case isolate, and with the same specimen type and location of collection. Isolates obtained in the outpatient setting or within 48 hours of hospital admission were considered causes of community-associated infection. Further study details are as described (Banerjee, R J et al. “Predictors and molecular epidemiology of community-onset extended-spectrum beta-lactamase (ESBL) Escherichia coli infection in a Midwestern community,” 2013 Infect Control Hosp Epidemiol; in press).
# The resistance score was the total number of agents to which an isolate was resistant. This study was approved by the NorthShore and VA Medical Center institutional review boards.
# [3] = test system: extraintestinal Escherichia coli isolates; experiment: Antimicrobial susceptibility testing (CLSI breakpoints), Olmsted County isolates; settings: for Resistance prevalence among H30 ST131: H30 ST131 subclone, N = 70; for Resistance prevalence among non-H30 ST131: non-H30 ST131, N = 10
# [4] = all non-H30 isolates (H30 subclone vs. others)
# [5] = all non-ST131 isolates (ST131 vs. others)
# [6] = resistance prevalence among H30 ST131 subclone isolates relative to all other isolates
# [7] = resistance prevalence among ST131 isolates relative to all other isolates
# [8] = ESBL-negative isolates, All N = 167
# [9] = ESBL-negative isolates, Non-ST131 N = 145
# [10] = ESBL-negative isolates, ST131 N = 22
# [11] = ESBL-positive isolates, All N = 100
# [12] = ESBL-positive isolates, Non-ST131 N = 51
# [13] = ESBL-positive isolates, ST131 N = 49
molecule,measurement,setting,value
"Cc1nnc(SCC2=C(C(=O)O)N3C(=O)[C@@H](NC(=O)Cn4cnnn4)[C@H]3SC2)s1 [Cefazolin, cefazolin]","Prevalence of resistance, H30 ST131",[1],27
same,"Prevalence of resistance, ST131",[1],29
same,"Prevalence of resistance, Total (%)",[1],17%
same,"Prevalence of resistance, Others (%)",[1]; [4],14%
same,"Prevalence of resistance, Others (%)",[1]; [5],12%
same,Estimated fraction due to ST131,[1],.47
same,"Overall prevalence in population, %",[1],17%
same,Prevalence ratio of resistance,[1]; [6],2.0
same,Prevalence ratio of resistance,[1]; [7],2.3
same,No. resistant (column %),[2]; [8],10 (6)
same,No. resistant (column %),[2]; [9],9 (6)
same,No. resistant (column %),[2]; [10],1 (5)
same,No. resistant (column %),[2]; [11],99 (99)
same,No. resistant (column %),[2]; [12],51 (100)
same,No. resistant (column %),[2]; [13],48 (98)
same,"No. of resistant isolates (column %), H30-Rx (N = 47)",[2],43 (91) No. (column %)
same,"No. of resistant isolates (column %), H30, non-Rx (N = 15)",[2],5 (33) No. (column %)
same,"No. of resistant isolates (column %), H30 (N = 62)",[2],48 (77) No. (column %)
same,"No. of resistant isolates (column %), Non-H30 (N = 9)",[2],1 (11) No. (column %)
same,No. of resistant isolates (column %),"[3]; All isolates, N = 299",93 (31)
same,Resistance prevalence among H30 ST131,[3],58%
same,No. of resistant isolates (column %),"[3]; Other STs, N = 129",30 (23)
same,No. of resistant isolates (column %),"[3]; ST9, N = 32",3 (9)
same,No. of resistant isolates (column %),"[3]; ST69, N = 15",5 (33)
same,No. of resistant isolates (column %),"[3]; ST73, N = 25",7 (28)
same,No. of resistant isolates (column %),"[3]; ST127, N = 18",3 (17)
same,No. of resistant isolates (column %),"[3]; ST131, N = 80",45 (57)
same,Resistance prevalence among non-H30 ST131,[3],50%
"C[C@@H](O)[C@H]1C(=O)N2C(C(=O)O)=C(SCCN=CN)C[C@H]12 [Imipenem, imipenem]","Prevalence of resistance, H30 ST131",[1],0.5
same,"Prevalence of resistance, ST131",[1],0.4
same,"Prevalence of resistance, Total (%)",[1],0.25%
same,"Prevalence of resistance, Others (%)",[1]; [4],0.2%
same,"Prevalence of resistance, Others (%)",[1]; [5],0.2%
same,Estimated fraction due to ST131,[1],.50
same,"Overall prevalence in population, %",[1],0.25%
same,Prevalence ratio of resistance,[1]; [6],1.4
same,Prevalence ratio of resistance,[1]; [7],1.4
same,No. of resistant isolates (column %),"[3]; All isolates, N = 299",3 (1)
same,No. of resistant isolates (column %),"[3]; Other STs, N = 129",1 (1)
same,No. of resistant isolates (column %),"[3]; ST9, N = 32",0
same,No. of resistant isolates (column %),"[3]; ST69, N = 15",0
same,No. of resistant isolates (column %),"[3]; ST73, N = 25",0
same,No. of resistant isolates (column %),"[3]; ST127, N = 18",2 (14)
same,No. of resistant isolates (column %),"[3]; ST131, N = 80",0
"CO/N=C(\C(=O)N[C@@H]1C(=O)N2C(C(=O)O)=C(CSc3nc(=O)c(=O)[nH]n3C)CS[C@H]12)c1csc(N)n1 [Ceftriaxone, ceftriaxone]","Prevalence of resistance, H30 ST131",[1],4
same,"Prevalence of resistance, ST131",[1],3
same,"Prevalence of resistance, Total (%)",[1],2%
same,"Prevalence of resistance, Others (%)",[1]; [4],2%
same,"Prevalence of resistance, Others (%)",[1]; [5],2%
same,Estimated fraction due to ST131,[1],.43
same,"Overall prevalence in population, %",[1],2%
same,Prevalence ratio of resistance,[1]; [6],2.0
same,Prevalence ratio of resistance,[1]; [7],1.9
same,No. resistant (column %),[2]; [8],1 (1)
same,No. resistant (column %),[2]; [9],1 (1)
same,No. resistant (column %),[2]; [10],0 (0)
same,No. resistant (column %),[2]; [11],98 (98)
same,No. resistant (column %),[2]; [12],51 (100)
same,No. resistant (column %),[2]; [13],47 (96)
same,"No. of resistant isolates (column %), H30-Rx (N = 47)",[2],42 (89) No. (column %)
same,"No. of resistant isolates (column %), H30, non-Rx (N = 15)",[2],4 (27) No. (column %)
same,"No. of resistant isolates (column %), H30 (N = 62)",[2],46 (74) No. (column %)
same,"No. of resistant isolates (column %), Non-H30 (N = 9)",[2],1 (11) No. (column %)
same,No. of resistant isolates (column %),"[3]; All isolates, N = 299",16 (6)
same,Resistance prevalence among H30 ST131,[3],9%
same,No. of resistant isolates (column %),"[3]; Other STs, N = 129",8 (7)
same,No. of resistant isolates (column %),"[3]; ST9, N = 32",0
same,No. of resistant isolates (column %),"[3]; ST69, N = 15",0
same,No. of resistant isolates (column %),"[3]; ST73, N = 25",0
same,No. of resistant isolates (column %),"[3]; ST127, N = 18",0
same,No. of resistant isolates (column %),"[3]; ST131, N = 80",8 (11)
same,Resistance prevalence among non-H30 ST131,[3],29%
trimethoprim-sulfamethoxazole [TMP/SMX],"Prevalence of resistance, H30 ST131",[1],47
same,"Prevalence of resistance, ST131",[1],42
same,"Prevalence of resistance, Total (%)",[1],22%
same,"Prevalence of resistance, Others (%)",[1]; [4],14%
same,"Prevalence of resistance, Others (%)",[1]; [5],13%
same,ST131's overall contribution to antimicrobial resistance within the source E. coli population,"[1]; back-calculations, listed as TMP-SMZ",> 50% and 56%
same,Estimated fraction due to ST131,[1],.56
same,"Overall prevalence in population, %",[1],22%
same,Prevalence ratio of resistance,[1]; [6],3.3
same,Prevalence ratio of resistance,[1]; [7],2.4
same,No. resistant (column %),[2]; [8],31 (19)
same,No. resistant (column %),[2]; [9],18 (12)
same,No. resistant (column %),[2]; [10],13 (59)
same,No. resistant (column %),[2]; [11],63 (63)
same,No. resistant (column %),[2]; [12],39 (76)
same,No. resistant (column %),[2]; [13],24 (49)
same,"No. of resistant isolates (column %), H30-Rx (N = 47)",[2],21 (45) No. (column %)
same,"No. of resistant isolates (column %), H30, non-Rx (N = 15)",[2],10 (67) No. (column %)
same,"No. of resistant isolates (column %), H30 (N = 62)",[2],31 (50) No. (column %)
same,"No. of resistant isolates (column %), Non-H30 (N = 9)",[2],6 (67) No. (column %)
same,No. of resistant isolates (column %),"[3]; All isolates, N = 299",88 (29)
same,Resistance prevalence among H30 ST131,[3],47%
same,No. of resistant isolates (column %),"[3]; Other STs, N = 129",37 (29)
same,No. of resistant isolates (column %),"[3]; ST9, N = 32",2 (6)
same,No. of resistant isolates (column %),"[3]; ST69, N = 15",8 (53)
same,"Prevalence of resistance, ST69",[3]; ST69 isolates,53%
same,No. of resistant isolates (column %),"[3]; ST73, N = 25",3 (12)
same,No. of resistant isolates (column %),"[3]; ST127, N = 18",1 (6)
same,No. of resistant isolates (column %),"[3]; ST131, N = 80",37 (46)
same,"Prevalence of resistance, ST131",[3]; ST131 isolates,46%
same,Resistance prevalence among non-H30 ST131,[3],40%
